The record followed here is patent EP0558104B1, “1,5-Benzodiazepine derivatives and their use in medicine” (GLAXO WELLCOME S.p.A., priority 1992, dated 1993).

One series has as its system rat. The experiment in a line: Anxiolytic activity in rats (rat social interaction model). It is filed as in vivo. From the text: (§1) For example in mice in the black-white box test and in the rat social interaction model.
A further series deals with rats. Put plainly: Tolerability after oral administration to rats. To be noted: given orally to rats at doses at which the compound exhibits anxiolytic activity. In kind it is in vivo. The text has this:
(§2) The compounds of the invention are essentially non-toxic and therapeutically useful doses.

For series [1], the system named is mice. Put plainly: Anxiolytic activity in mice (black-white box test). It is filed as in vivo.
Excerpt: as §1

For another series, the target named is T1, CCK-A receptors (Cavia porcellus, UniProt Q63931).
T1 construct: guinea pig isolated ileum longitudinal muscle myenteric plexus preparation; from tissue; host or cells: guinea pig isolated ileum longitudinal muscle-myenteric plexus
T1 sequence (Q63931 1-430): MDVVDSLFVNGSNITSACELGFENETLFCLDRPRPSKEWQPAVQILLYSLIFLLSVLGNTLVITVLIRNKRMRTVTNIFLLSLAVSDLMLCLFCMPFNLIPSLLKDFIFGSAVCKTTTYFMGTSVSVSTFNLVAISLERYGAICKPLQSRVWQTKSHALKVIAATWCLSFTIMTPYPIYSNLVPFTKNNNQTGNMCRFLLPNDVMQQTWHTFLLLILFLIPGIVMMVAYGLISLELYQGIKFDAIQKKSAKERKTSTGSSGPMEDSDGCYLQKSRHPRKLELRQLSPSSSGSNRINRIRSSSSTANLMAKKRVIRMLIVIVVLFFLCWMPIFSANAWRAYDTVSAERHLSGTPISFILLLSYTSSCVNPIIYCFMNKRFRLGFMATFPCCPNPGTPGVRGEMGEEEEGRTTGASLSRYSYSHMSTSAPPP
The experiment in a line: CCK-A antagonist activity, guinea pig isolated ileum longitudinal muscle myenteric plexus preparation. It is filed as cell-based. As to the method:
The preparation and use of guinea-pig isolated ileum longitudinal muscle-myenteric plexus has been described by K-H Buchheit et al in Nauyn-Schmeideberg's Arch. Pharmacol, (1985), 329, p3641 and by V.L. Lucaites et al (1991) in J. Pharmacol. Exp. Ther., 256, 695-703.
The CCK-A antagonist and CCK-B antagonist activites of compounds of the invention were determined using the guinea pig isolated ileum longitudinal muscle myenteric plexus preparation. The compounds were tested using the procedure G Dal Forno et al J. Pharmacol. Exp & Ther. 261 - 1056-1063 1992 and the pKb value for each compound was determined.

Series [2] has as its system mice. The experiment in a line: Tolerability after oral administration to mice. It is filed as in vivo. To be noted: given orally to mice at doses at which the compound exhibits anxiolytic activity.
Excerpt: as §2

The next series has as its target CCK-B receptor (Cavia porcellus, UniProt H0VZC5). The experiment in a line: CCK receptor binding, guinea pig cortex assay. The arrangement: CCK-B receptor (guinea pig cortex assay); from tissue; host or cells: guinea pig cortex. The method, then: The greater affinity of the compounds of the invention for the CCK-B receptor over the CCK-A receptor has also been established using the CCK receptor binding assays described by G Dal Fornos et al., J. Pharmcol. Exp & Ther. 261, 1056-1063, 1992.
The binding affinity of the compounds of the invention for the CCK-A receptor (Pancreas Assay) and CCK-B receptor (guinea pig cortex assay) was determined using the procedure of G Dal Forno et al J. Pharmacol. Exp & Ther. 261 - 1056-1063. The pKi values determined with respresentative compounds of invention were as follows: […]

Setting [3] is: guinea pig isolated ileum longitudinal muscle myenteric plexus, inhibition of contractile activity of CCK-8, read-out: pKb CCK-A (converted).

The structures appear in SMILES notation. pKi: −log10 of the molar value. Where two headings read alike, the source gives them in different places. Some results are limits rather than exact numbers.

Sequence of CCK-B receptor (H0VZC5 entry or part of it): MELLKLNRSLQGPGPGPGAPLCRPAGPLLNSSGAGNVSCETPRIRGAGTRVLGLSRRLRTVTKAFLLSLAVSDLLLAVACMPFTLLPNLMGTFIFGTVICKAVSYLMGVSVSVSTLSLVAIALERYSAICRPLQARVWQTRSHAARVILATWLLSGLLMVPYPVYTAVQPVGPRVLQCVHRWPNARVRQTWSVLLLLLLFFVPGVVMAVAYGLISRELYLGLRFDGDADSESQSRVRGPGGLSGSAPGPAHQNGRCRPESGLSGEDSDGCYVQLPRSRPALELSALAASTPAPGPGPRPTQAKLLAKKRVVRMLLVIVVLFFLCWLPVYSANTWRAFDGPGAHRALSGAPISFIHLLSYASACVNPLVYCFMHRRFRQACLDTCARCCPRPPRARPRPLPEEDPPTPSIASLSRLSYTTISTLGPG

As for `O=C(Nc1ccccc1)NC1C(=O)N(CC23CC4CC(CC(C4)C2)C3)c2ccccc2N(c2ccccc2)C1=O` (single isomer, unassigned; (+)) [Example 45, (+)-N-[1-(Adamantanmethyl)-2,4-dioxo-5-phenyl-2,3,4,5-tetrahydro-1H-1,5benzodiazepin-3-yl]-N'-phenylurea], the anxiolytic activity entry in the series on rat and in the series on mice [1] was “exhibits anxiolytic activity” each time. In addition, the untoward effects result in the series on rats and in the series with mice [2] was “no untoward effects” in each case. The molecule further showed a Kb at CCK-A receptors of 1260 nM.
In turn, `CC(C)CCN1C(=O)C(NC(=O)Nc2cccc(N(C)C)c2)C(=O)N(c2ccccc2F)c2ccccc21` (centres unmarked) [Example 4, N-[2,4-dioxo-5-(2-fluorophenyl)-1-(3-methylbut-1-yl)-2,3,4,5-tetrahydro-1H-1,5-benzodiazepin-3-yl]-N'-(3-dimethylamino)phenylurea] gave a negative-log Ki (pKi) on CCK-B receptor of 9.60. Moreover, the Kb on CCK-A receptors (setting [3]) is 3160 nM.
On CCK-B receptor, `CC(C)(C)C(O)CN1C(=O)C(NC(=O)Nc2ccccc2)C(=O)N(c2ccccc2F)c2ccccc21` (centres unmarked) [Example 7A, N-[1-(3,3-Dimethyl-2-hydroxybut-1-yl)-2,4-dioxo-5-(2-fluorophenyl)-2,3,4,5-tetrahydro-1H-1,5-benzodiazepin-3-yl]-N'-phenylurea] showed a negative-log Ki (pKi) of 8.71.
The same measure, in the same setting: as for `CC(C)CCN1C(=O)C(NC(=O)Nc2ccccc2)C(=O)N(c2ccccc2)c2cc(Cl)ccc21` (centres unmarked) [Example 9, N-[7-Chloro-2,4-dioxo-1-(3-methylbut-1-yl)-5-phenyl-2,3,4,5-tetrahydro-1H-1,5-benzodiazepin-3-yl]-N'-phenylurea], the figure is 8.31.
Still for that read-out and setting: the result for `CC(C)CCN1C(=O)C(NC(=O)Nc2ccccc2)C(=O)N(c2ccccc2)c2cc(Cl)c(Cl)cc21` (centres unmarked) [Example 11, N-[7,8-dichloro-2,4-Dioxo-1-(3-methylbut-1-yl)-5-phenyl-2,3,4,5-tetrahydro-1H-1,5-benzodiazepin-3-yl]-N'-phenylurea] reads 8.01.
`O=C(Nc1ccccc1)NC1C(=O)N(CC23CC4CC(CC(C4)C2)C3)c2ccccc2N(c2ccccc2)C1=O` (centres unmarked) [Example 14, N-[1-(1-Adamantyl)methyl-2,4-dioxo-5-phenyl-2,3,4,5-tetrahydro-1H-1,5-benzodiazepin-3-yl]-N'-phenylurea] showed a Kb at CCK-A receptors of 158 nM.
In the case of `CC(C)(C)CCN1C(=O)C(NC(=O)Nc2ccccc2)C(=O)N(c2ccccc2)c2ccccc21` (centres unmarked) [Example 16, N-[1-(3,3-Dimethylbutyl)-2,4-dioxo-5-phenyl-2,3,4,5-tetrahydro-1H-1,5-benzodiazepin-3-yl]-N'-phenylurea], the negative-log Ki (pKi) on CCK-B receptor was 9.17.
Regarding `CC(C)CCN1C(=O)C(NC(=O)Nc2ccccc2)C(=O)N(c2ccccc2)c2ccccc21` (centres unmarked) [Example 25, N-[2,4-Dioxo-5-phenyl-1-(3-methylbut-1-yl)-2,3,4,5-tetrahydro-1H-1,5-benzodiazepin-3-yl]-N'-phenylurea], at CCK-A receptors (setting [3]), the Kb is greater than 1000 nM.
In the case of `CN(C)c1ccc(NC(=O)NC2C(=O)N(CCC3CCCC3)c3ccccc3N(c3ccccc3F)C2=O)cc1` (centres unmarked) [Example 30, N-[1-(2-cyclopentyl-ethyl)-2,4-dioxo-5-(2-fluorophenyl)-2,3,4,5-tetrahydro-1H-1,5-benzodiazepin-3-yl]-N'-[4-(dimethylamino)phenyl]urea], the negative logarithm of the Ki (pKi) at CCK-B receptor was 9.14.
Same read-out and setting: the result for `O=C(Nc1ccccc1)NC1C(=O)N(CC2CC3C=CC2C3)c2ccccc2N(c2ccccc2)C1=O` (centres unmarked) [Example 31, N-[1-(Bicyclo [2.2.1]-5-heptene-2-ylmethyl)-2,4-dioxo-5-phenyl-2,3,4,5-tetrahydro-1H-1,5-benzodiazepin-3yl]-N'-phenylurea] reads 8.82; that for `O=C(Nc1cccc([N+](=O)[O-])c1)NC1C(=O)N(CC23CC4CC(CC(C4)C2)C3)c2ccccc2N(c2ccccc2)C1=O` (centres unmarked) [Example 39, N-[1-(1-Adamantylmethyl)-2,4-dioxo-5-phenyl-2,3,4,5-tetrahydro-1H-1,5-benzodiazepin-3-yl]-N'-(3-nitrophenyl)urea], 8.72; that for `CCOC(=O)c1cccc(NC(=O)NC2C(=O)N(CC34CC5CC(CC(C5)C3)C4)c3ccccc3N(c3ccccc3)C2=O)c1` (centres unmarked) [Example 41, N-[1-(1-Adamantylmethyl)-2,4-dioxo-5-phenyl-2,3,4,5-tetrahydro-1H-1,5-benzodiazepin-3-yl]-N'-(3-ethoxycarbonylphenyl)urea], 8.53.

In general, pKi refers to the Ki on a negative log10 scale, so that one unit is a factor of ten.
